What was measured:
IDH1 R132H = IDH1 R132H (Homo sapiens, UniProt O75874, R132H); experiment: IDH1 R132H enzymatic assay (NADPH depletion coupled to diaphorase/resazurin); assay type: biochemical; settings: IDH1 R132H enzymatic inhibition, IC50 class
IDH1 R132C = IDH1 R132C (Homo sapiens, UniProt O75874, R132C); experiment: IDH1 R132C enzymatic assay (NADPH depletion coupled to diaphorase/resazurin); assay type: biochemical; settings: IDH1 R132C enzymatic inhibition, IC50 class
Outline: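 NADPH depletion, read via diaphorase/resazurin coupling, after adding substrate at 0.6 mM α-KG and 0.012 mM NADPH. Beforehand, 0.00032 mg/mL enzyme sat with compound 30 min at room temperature in pH 6.5 potassium phosphate buffer with MgCl2, glycerol and BSA.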

IDH1 R132C, sequence (O75874 whole entry R132C): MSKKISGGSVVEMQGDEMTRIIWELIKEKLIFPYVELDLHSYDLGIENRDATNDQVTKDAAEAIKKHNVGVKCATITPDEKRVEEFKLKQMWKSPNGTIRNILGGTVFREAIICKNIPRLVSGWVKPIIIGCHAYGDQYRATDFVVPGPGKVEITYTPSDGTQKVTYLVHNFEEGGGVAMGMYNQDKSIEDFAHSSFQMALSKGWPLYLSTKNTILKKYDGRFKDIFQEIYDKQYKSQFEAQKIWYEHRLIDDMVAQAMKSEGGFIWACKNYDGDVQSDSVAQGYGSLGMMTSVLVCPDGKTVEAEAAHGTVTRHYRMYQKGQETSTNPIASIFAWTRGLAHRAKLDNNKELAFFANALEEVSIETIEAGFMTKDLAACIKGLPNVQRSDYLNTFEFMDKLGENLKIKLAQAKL
IDH1 R132H, sequence (O75874 whole entry R132H): as the sequence (O75874 whole entry R132C) above, with C132H counted along it

Structure (SMILES)	IC50 (IDH1 R132H) [nM]	IC50 (IDH1 R132C) [nM]
CCc1cccc(CC)c1-n1c(CC(C)C)c(C(=O)N2CCNC(c3ccccc3)C2)cc(-c2nc(-c3ccc(Cl)cc3)cs2)c1=O (centres unmarked) [Compound 202]	300 to 1000	< 300
COc1ccccc1Cn1c2c(cc(-c3nc(-c4ccc(Cl)cc4)cs3)c1=O)C(=O)CC(C)(C)C2 [Compound 203]	1000 to 5000	1000 to 5000
COc1ccc(-c2csc(-c3cc4c(n(-c5ccccc5C(F)(F)F)c3=O)CC(C)(C)CC4=O)n2)cc1 [Compound 204]	1000 to 5000	300 to 1000
CCc1cccc(CC)c1-n1c2c(cc(-c3nc(-c4cccc(Cl)c4)cs3)c1=O)C(=O)CC(C)(C)C2 [Compound 205]	> 20000	1000 to 5000
CCc1cccc(CC)c1-n1c(CC(C)C)c(C(=O)N2CC(C(=O)O)NCC2C)cc(-c2nc(-c3ccc(Cl)cc3)cs2)c1=O (centres unmarked) [Compound 206]	300 to 1000	< 300
CCc1cccc(CC)c1-n1c(C)c(C(=O)N2CCC(NC)C2)cc(-c2nc(-c3ccc(Cl)cc3)cs2)c1=O (centres unmarked) [Compound 207]	1000 to 5000	1000 to 5000
CCc1cccc(CC)c1-n1c2c(cc(-c3nc(C4=CCN(C)CC4)c(C)s3)c1=O)C(=O)CC(C)(C)C2 [Compound 208]	> 20000	5000 to 20000
CCc1cccc(CC)c1-n1c2c(cc(-c3nc(-c4cccc(F)c4)cs3)c1=O)C(=O)CC(C)(C)C2 [Compound 209]	1000 to 5000	1000 to 5000
CCc1cccc(CC)c1-n1c(CC(C)C)c(C(=O)N2CCNCC2)cc(-c2nc(-c3ccc(C(F)(F)F)cc3)c(C)s2)c1=O [Compound 210]	300 to 1000	< 300
CCc1cccc(CC)c1-n1c(CC(C)C)c(C(=O)N2CCNCC2)cc(-c2nc(-c3ccc(N4CCOCC4)cc3)c(C)s2)c1=O [Compound 211]	5000 to 20000	5000 to 20000
CCOc1ccccc1-n1c2c(cc(-c3nc(-c4ccc(Cl)cc4)cs3)c1=O)C(=O)CC(C)(C)C2 [Compound 212]	300 to 1000	300 to 1000
CCc1cccc(CC)c1-n1c2c(cc(-c3nc(-c4ccccc4Cl)cs3)c1=O)C(=O)CC(C)(C)C2 [Compound 213]	1000 to 5000	1000 to 5000
CCc1cccc(CC)c1-n1c(C)c(C(=O)N[C@@H]2CCCC[C@@H]2N)cc(-c2nc(-c3ccc(Cl)cc3)cs2)c1=O [Compound 214]	5000 to 20000	300 to 1000

Now from value to compound:

IC50 (IDH1 R132H) [nM]	IC50 (IDH1 R132C) [nM]	Structure (SMILES)
1000 to 5000	1000 to 5000	Cc1cccc(C)c1-n1c2c(cc(-c3nc(-c4ccc(Cl)cc4)cs3)c1=O)C(=O)CC(C)(C)C2 [Compound 215]
> 20000	5000 to 20000	CC1(C)CC(=O)c2cc(-c3nc(-c4ccc(Cl)cc4)cs3)c(=O)n(C3CCCCC3)c2C1 [Compound 216]
1000 to 5000	300 to 1000	CCc1cccc(CC)c1-n1c(CC(C)C)c(C(=O)N[C@@H]2CCC[C@H]2O)cc(-c2nc(-c3ccc(Cl)cc3)cs2)c1=O [Compound 217]
< 300	300 to 1000	CCc1cccc(CC)c1-n1c(C(C)C)c(C(=O)NCCO)cc(-c2nc(-c3ccc(Cl)cc3)cs2)c1=O [Compound 218]
1000 to 5000	1000 to 5000	CCc1cccc(CC)c1-n1c(C)c(C(=O)NC2CCC(O)CC2)cc(-c2nc(-c3ccc(Cl)cc3)cs2)c1=O (centres unmarked) [Compound 219]
< 300	300 to 1000	CCc1cccc(CC)c1-n1c(C)c(C(=O)N2CCN[C@@H](CO)C2)cc(-c2nc(-c3ccc(Cl)cc3)cs2)c1=O [Compound 220]
1000 to 5000	300 to 1000	CCc1cccc(CC)c1-n1c(CC(C)C)c(C(=O)NC[C@H](N)C(=O)O)cc(-c2nc(-c3ccc(Cl)cc3)cs2)c1=O [Compound 221]
1000 to 5000	< 300	CCc1cccc(CC)c1-n1c(C(C)C)c(C(=O)N2CCN[C@@H](C(=O)OC)C2)cc(-c2nc(-c3ccc(Cl)cc3)cs2)c1=O [Compound 222]
1000 to 5000	< 300	CCc1cccc(CC)c1-n1c(C)c(C(=O)N2CCCC(N)C2)cc(-c2nc(-c3ccc(Cl)cc3)cs2)c1=O (centres unmarked) [Compound 223]

Reference: patent US10703746B2, “Mutant IDH1 inhibitors useful for treating cancer” (THE UNITED STATES OF AMERICA, AS REPRESENTED BY THE …, priority 2014, dated 2020)
